# Results from patent US20100267792A1, “Topical Compositions Containing Desthiobiotin and its Derivatives and a Method of Treating Skin” (AVON PRODUCTS, INC., priority 2007, published 2010).
# Tests used:
# [1] = tested on: LOXL1 regulatory elements (promoter region of the LOXL1 gene); test: LOXL1 promoter luciferase-reporter assay; type: cell-based; details: 0.001% DL-Desthiobiotin, 24 h, human fibrosarcoma line HTI080, LOXL1/pGL3 vector, triplicate tests, p<0.05 compared to vehicle control
# Description: Vector construction, transfection and expression: The promoter region of the LOXL1 gene was isolated and cloned into the pGL3 Luciferase reporter plasmid (Promega) by standard methods known in the art and according to manufacturer's instructions. The LOXL1/pGL3 vector and the control vector pRL-NULL (Promega), containing no regulatory elements, were contransfected into the human fibrosarcoma line HTI080 using LipofectAMINE™ LTX Reagent (Invitrogen) according to manufacturer's directions. Transfected cells were allowed to recover for 24 h. The culture medium was then replaced with fresh medium containing various concentrations of DL-Desthiobiotin, and the transfected cells cultured for an additional 24 h. The cultures were subsequently washed with PBS and exposed to 100 microlit cell lysis buffer/25 cm^2 culture area and gently shaken at room temperature for 30 min. The culture flasks containing the cell lysate were then immediately placed at −80 °C. Determination of reporter activity: The activity of the reporter gene, firefly luciferase, was determined according to the manufacturer's instructions (Dual-Luciferase® Reporter Assay System, Promega). Briefly, the activity of the reporter gene is determined relative to that of a control vector encoding a second luciferase gene, that from Renilla reniformis. […]
# Fibrillin-1 mRNA = test: Fibrillin-1 gene expression by quantitative RT-PCR in fibroblasts; type: cell-based; details: 0.001% DL-Desthiobiotin, 48 h, normal human dermal fibroblasts, QPCR, compared to solvent control, p<0.05
# Experimental: Cell Treatment: Normal human dermal fibroblasts were plated at 10^6 cells/100 mm tissue culture plates in 10 mls of standard growth medium and incubated at 37° C. and 10% CO2. Approximately 24 hours later, cells were dosed with test actives and solvent controls diluted in fresh growth medium and incubated for 48 hours at 37° C. Following 48-hour incubation, cell medium was removed, and 1 ml of TRIzol® reagent was added to lyse the cells in each plate. Cells from each plate were scraped, passed several times through a pipette, and collected into 1.5 ml centrifuge tubes. The cell lysates were incubated for 5 minutes at 15 to 30° C. to permit the complete dissociation of nucleoprotein complexes, and then stored at −80° C. for RNA isolation. RNA Isolation and RT PCR: RNA was isolated using standard procedures and was dissolved in RNase-free water and stored at −80° C. The concentration of total RNA was determined by using Agilent 2100 Bioanalyzer. […] Reverse Transcriptase (RT) reactions were conducted following the manufacturer's instructions provided by Applied Biosystems, Calif. After the RT step, the reactions were stored at −20° C. for QPCR analysis. QPCR was conducted in a total volume of 20 μl. Applied Biosystems (AB) Universal PCR master mix was used. […]
structure (smiles),measurement,setting,value
CC1NC(=O)NC1CCCCCC(=O)O (racemic) [DL-Desthiobiotin],increase in expression of the reporter gene,[1],90%
same,increase in Fibrillin-1 gene expression,Fibrillin-1 mRNA,47.55%
